Source: patent publication US8796429B2, “Bioactive lipid derivatives, and methods of making and using same” (Lpath, Inc., priority 2006, dated 2014)
“Also recorded” adds a separate entry of the source. Blank lines part the entries; values can stand above or below the molecule they belong to.

What was measured:
[1] = Direct ELISA, chimeric antibody and mutants binding to S1P; conditions: for Binding: antibody 0.1 ug/ml, optical density at 450 nm
Method: Microtiter ELISA plates (Costar) were coated overnight with S1P diluted in 1 M Carbonate Buffer (pH 9.5) at 37° C. for 1 hr. Plates were washed with PBS (137 mM NaCl, 2.68 mM KCl, 10.1 mM Na2HPO4, 1.76 mM KH2PO4; pH 7.4) and blocked with PBS/BSA/Tween-20 for 1 hr at room temp or overnight at 4° C. For the primary incubation (1 hr at room temp.), a standard curve using the anti-S1P mAb and the samples to be tested for binding was built using the following set of dilutions: 0.4 μg/mL, 0.2 μg/mL, 0.1 μg/mL, 0.05 μg/mL, 0.0125 μg/mL, and 0 μg/mL, and 100 μl added to each well. Plates were washed and incubated with 100 μl per well of HRP conjugated goat anti-mouse (1:20,000 dilution) (Jackson Immuno Research) or HRP conjugated goat anti-human (H+L) diluted 1:50,000 (Jackson Immuno Research) for 1 hr at room temperature. After washing, the enzymatic reaction was detected with tetramethylbenzidine (Sigma) and stopped by adding 1 M H2SO4. The optical density (OD) was measured at 450 nm using a Thermo Multiskan EX. Raw data were transferred to GraphPad software for analysis.
The chromogenic reaction was measured and reported as Optical density (OD). The concentration of the panel of antibodies was 0.1 ug/ml. No interaction of the second antibody with S1P-coated matrix alone was detected.

Caki-1 cells = test: LPA-induced IL-8 release, ELISA of supernatants; format: cell-based, human; conditions: 18:1 LPA 0.2 mM, cells without mAb, 24 h
Method: Three anti-LPA mAbs (B3, B7 and B58) were tested for their abilities to reduce in vitro IL-8 production compared to a non-specific antibody (NS). Caki-1 cells were seeded in 96 well plates and grown to confluency. After overnight serum starvation, cells were treated with 18:1 LPA (0.2 mM) with or without anti-LPA mAb B3, B7, B58 or NS (Non-Specific). After 24 h, cultured supernatants of renal cancer cells (Caki-1), treated with or without LPA and in presence of increasing concentrations of the anti-LPA mAbs B3, B7 and B58, were collected and analyzed for IL-8 levels using a commercially available ELISA kit (Human Quantikine Kit, R&D Systems, Minneapolis, Minn.). […] Similar results were obtained with the other well-known pro-angiogenic factor, VEGF. The inhibition of IL-8 release by the anti-LPA mAbs was also observed in other cancerous cell lines such as the pancreatic cell line Panc-1.

SKOV3 cells = test: Taxol-induced apoptosis (caspase activity); format: cell-based, human
Method: The ability of LPA to protect ovarian tumor cells against apoptosis when exposed to clinically-relevant levels of the chemotherapeutic agent, paclitaxel (Taxol) was investigated. SKVO3 cells were treated with 1% FBS (S), Taxol ([…]), +/− anti-LPA mAbs for 24 h. […] Apoptosis was assayed by measurement of the caspase activity as recommended by the manufacturer (Promega). As anticipated, LPA protected most of the cancer cell lines tested from taxol-induced cell death. […] Moreover, the anti-LPA antibody was able to remove the protection provided by serum. Serum is estimated to contain about […] LPA. […] Taxol-induced caspase activation was enhanced by the addition of all 3 of the anti-LPA mAbs to the culture medium.

human cancer cell lines = test: LPA-induced cancer cell proliferation; format: cell-based; conditions: LPA 0.01 mM to 10 mM; SKOV3, OVCAR3, Panc-1, Caki-1, DU-145, A549, HCT-116; also rat RBL-2H3
Method: LPA is a potent growth factor supporting cell survival and proliferation by stimulation of Gi, Gq and G12/13 via GPCR-receptors and activation of downstream signaling events. Cell lines were tested for their proliferative response to LPA ([…]). Cell proliferation was assayed by using the cell proliferation assay kit from Chemicon (Temecula Calif.) (Panc-1) and the Cell-Blue titer from Pierce (Caki-1). Each data point is the mean of three independent experiments. […] Even though tumor-derived cells normally have high basal levels of proliferation, LPA appears to further augment proliferation in most tumor cell lines. Anti-LPA mAbs (B7 and B58) were assessed for the ability to inhibit LPA-induced proliferation in selected human cancer cell lines.

[2] = Competitive ELISA, specificity of anti-S1P mAb; format: binding
Method: (§1) Screening of serum and cell supernatant for S1P-specific antibodies was by direct ELISA using the thiolated S1P analog described in Example 1 (i.e., compound 10) as the antigen. A standard ELISA was performed, as described below, except that 50 ul of sample (serum or cell supernatant) was diluted with an equal volume of PBS/0.1% Tween-20 (PBST) during the primary incubation. ELISAs were performed in 96-well high binding ELISA plates (Costar) coated with 0.1 μg of chemically-synthesized compound 10 conjugated to BSA in binding buffer (33.6 mM Na2CO3, 100 mM NaHCO3; pH 9.5). The thiolated-S1P-BSA was incubated at 37° C. for 1 hr. at 4° C. overnight in the ELISA plate wells. The plates were then washed four times with PBS (137 mM NaCl, 2.68 mM KCl, 10.14 mM Na2HPO4, 1.76 mM KH2PO4; pH 7.4) and blocked with PBST for 1 hr. at room temperature. For the primary incubation step, 75 uL of the sample (containing the S1P to be measured), was incubated with 25 uL of 0.1 ug/mL anti-S1P mAb diluted in PBST and added to a well of the ELISA plate. Each sample was performed in triplicate wells. Following a 1 hr. incubation at room temperature, the ELISA plates were washed four times with PBS and incubated with 100 ul per well of 0.1 ug/mL HRP goat anti-mouse secondary (Jackson Immunoresearch) for 1 hr. at room temperature. Plates were then washed four times with PBS and exposed to tetramethylbenzidine (Sigma) for 1-10 minutes. The detection reaction was stopped by the addition of an equal volume of 1M H2SO4. Optical density of the samples was determined by measurement at 450 nm using an EL-X-800 ELISA plate reader (Bio-Tech).
For cross reactivity, a competitive ELISA was performed as described above, except for the following alterations (FIG. 4). The primary incubation consisted of the competitor (S1P, SPH, LPA, etc.) and a biotin-conjugated anti-S1P mAb. Biotinylation of the purified monoclonal antibody was performed using the EZ-Link Sulfo-NHS-Biotinylation kit (Pierce). Biotin incorporation was determined as per kit protocol and ranged from 7 to 11 biotin molecules per antibody. […]

[3] = ELISA with exchanged crosslinker or protein carrier in the laydown material; format: binding
Excerpt: For example, the normal crosslinker SMCC was exchanged for IOA in conjugating the thiolated-S1P to BSA as the laydown material in the ELISA. […] Similarly, KLH was exchanged for BSA as the protein that was complexed with thiolated-S1P as the laydown material.

[4] = Competitive ELISA, specificity of anti-S1P mAb (free lipid competes with plate-bound S1P); format: binding; conditions: competitor free S1P
Method: as §1, with “Each sample was performed in triplicate wells. Following a 1 hr. incubation at room temperature, the ELISA plates were washed four times with PBS and incubated with 100 ul per well of 0.1 ug/mL HRP goat anti-mouse secondary (Jackson Immunoresearch) for 1 hr. at room temperature. Plates were then washed four times with PBS and exposed to tetramethylbenzidine (Sigma) for 1-10 minutes. The detection reaction was stopped by the addition of an equal volume of 1M H2SO4.” left out
For cross reactivity, a competitive ELISA was performed as described above, except for the following alterations (FIG. 4). […] Biotin incorporation was determined as per kit protocol and ranged from 7 to 11 biotin molecules per antibody. […]

Molecule: CysPhe
binding to S1P compared with the chimeric antibody ([1]; ELISA, substitution of Cys 50 in heavy chain CDR2): did not alter the binding
Binding [1]: 2 OD

Molecule: lysophosphatidic acid [LPA]
increase of IL-8 expression (Caki-1 cells): 100%
protection from Taxol-induced apoptosis (SKOV3 cells; Taxol 0.5 mM, 24 h): protected SKVO3 cells from Taxol-induced apoptosis
proliferative response to LPA (human cancer cell lines): increased proliferation

Molecule: CC(=O)O[C@H]1C(=O)[C@@]2(C)[C@H]([C@H](OC(=O)c3ccccc3)[C@]3(O)C[C@H](OC(=O)[C@H](O)[C@@H](NC(=O)c4ccccc4)c4ccccc4)C(C)=C1C3(C)C)[C@]1(OC(C)=O)CO[C@@H]1C[C@@H]2O [Taxol, paclitaxel]
caspase-3,7 activation (SKOV3 cells; SKOV3 cells): induced caspase-3,7 activation

The next lines start with results.

Binding [1]: 1.6 OD
Molecule: MetLeu

competition for mAb binding to S1P on the plate ([2]; competitor DH-S1P): can compete for binding
binding characteristics, laydown with KLH instead of BSA ([3]; KLH complexed with thiolated-S1P): no significant difference
binding characteristics, laydown with IOA instead of SMCC ([3]; thiolated-S1P conjugated to BSA, compared with BSA-SMCC-thiolated-S1P): nearly identical
competition for mAb binding to S1P on the plate [4]: can compete for binding
B1: anti-S1P mAb: murine IgG1 kappa monoclonal antibody against S1P from hybridoma clone 306D326.26 (ATCC SD-5362) (antibody, listed as Mus musculus, V domains shown)
VH: QAHLQQSDAELVKPGASVKISCKVSGFIFIDHTIHWMKQRPEQGLEWIGCISPRHDITKYNEMFRGKATLTADKSSTTAYIQVNSLTFEDSAVYFCARGGFYGSTIWFDFWGQGTTLTVS
VL: ETTVTQSPASLSMAIGEKVTIRCITTTDIDDDMNWFQQKPGEPPNLLISEGNILRPGVPSRFSSSGYGTDFLFTIENMLSEDVADYYCLQSDNLPFTFGSGTKLEIK
discrimination of thiolated-S1P analog from natural S1P ([2]; competition experiment): unable to distinguish
competition for mAb binding to S1P on the plate ([2]; competitor SPC (phosphate linked with choline)): somewhat reduced; also recorded: only slightly competes for binding
